Measured values as given in the supplement of paper PMC10307832.

Key:
[1] = compound: N[C@@H]1CCCN(c2c(/C=C3\SC(=O)NC3=O)cccc2-c2ccccc2)C1 [AZD1208] + Cc1cc(Nc2cc(N3CCN(C)CC3)nc(Sc3ccc(NC(=O)C4CC4)cc3)n2)n[nH]1 [Tozasertib] (partner 0.1 µM); assay: relative viability (nuclei count vs DMSO), 5 days (fraction); higher = more cells survive
Summary of the method: (§1)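 Lung cancer cell lines, seeded in 1536-well plates, were treated the following day by pin tool with a single drug or with five library-drug doses (not always all listed) in √10 steps on top of a fixed anchor-drug dose. Cells were fixed and nuclei stained in one step after 5 days, and nuclei were counted. Relative viability is the nuclei count for treated wells divided by that for vehicle wells, reported as medians of duplicate plates.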

[2] = compound: CN1CCN(CC1)C2=CC(=C(C=C2)NC3=NC(=C(S3)C(=O)C4=C(C=CC=C4Cl)Cl)N)OC [XMD14-99] + COc1cc2c(Oc3ccc(NC(=O)C4(C(=O)Nc5ccc(F)cc5)CC4)cc3F)ccnc2cc1OCCCN1CCOCC1 [Foretinib] (partner 0.25 µM); assay: as above
Summary of the method: as §1

Cell Line	relative viability ([1]; first compound 0.08 µM)	relative viability ([1]; first compound 0.253 µM)	relative viability ([1]; first compound 0.8 µM)	relative viability ([1]; first compound 2.53 µM)	relative viability ([1]; first compound 8 µM)	relative viability ([2]; first compound 0.08 µM)	relative viability ([2]; first compound 0.8 µM)	relative viability ([2]; first compound 2.53 µM)	relative viability ([2]; first compound 8 µM)
NCI-H2228	0.258	0.165	0.168	0.172	0.108	0.994	0.806	0.83	0.444
EMC-BAC-2	0.28	0.298	0.28	0.25	0.222	1.05	0.978	0.854	0.859
NCI-H2009	0.696	0.785	0.667	0.684	0.597	1.21	1.25	1.14	1.12
NCI-H596	0.896	0.925	0.77	0.733	0.592	0.957	0.895	0.832	0.955
NCI-H650	0.732	0.725	0.67	0.684	0.66	1.05	1.01	0.944	0.935
SW 1573	0.22	0.175	0.178	0.129	0.149	0.814	0.992	0.861	0.824
ChaGo-K-1	0.216	0.202	0.193	0.218	0.183	0.82	0.939	0.88	0.913
NCI-H522	0.534	0.619	0.492	0.514	0.446				
NCI-H1299						1.11	1.02	1.1	0.949
NCI-H1650	0.423	0.387	0.277	0.321	0.304	1.14	1.27	1.13	0.941
NCI-H2023	0.389	0.235	0.254	0.219	0.181	0.986	0.842	0.704	0.698
LOU-NH91	0.711	0.558	0.62	0.556	0.516	0.919	0.962	0.916	0.802
NCI-H3122	0.402	0.315	0.353	0.348	0.369	0.948	0.964	0.847	0.756
NCI-H1648	0.599	0.462	0.346	0.33	0.389				
LCLC-97TM1	0.223	0.23	0.175	0.135	0.132	0.918	0.855	0.918	0.641
NCI-H647	0.239	0.345	0.175	0.295	0.163	1.3	1.15	1.22	1.01
NCI-H838	0.277	0.261	0.267	0.268	0.264	1.01	0.943	0.926	0.887
H3255	0.664	0.675	0.534	0.58	0.689	0.956	0.9	0.737	0.709
SK-MES-1	1	0.956	0.903	0.853	0.744	1.01	0.927	0.971	0.745
